The values below come from patent US5905068A, “Retroviral protease inhibiting compounds” (Abbott Laboratories, priority 1996, dated 1999).

What is called EC50 is the concentration needed to bring the measured effect to its halfway point. Read a low EC50 as greater potency. One may read the inhibition as the drop in the measured response relative to a control, in per cent.

The nature of data set [1]: Cytotoxicity in uninfected MT4 cells (MTT). As to conditions: human, 5 days, n=four duplicate determinations, read-out: CTC50 (50% cytotoxicity concentration). The data set is classed as cell-based. As to the method: The anti-HIV activity of the compound of the invention was determined in MF4 cells according to the following procedure: MT4 cells were infected with cell-free supernatant of HIVIIIB (previously frozen with known 50% tissue culture infectious dose (TCID50) at 0.003 multiplicity of infection (MOI)) for one hour. After one hour infection, cells were washed twice to remove residual viruses, resuspended in culture media and seeded into 96-well tissue culture plates at 1×10^4 cells per well with various half-log dilutions of compounds. Uninfected cells were included a toxicity and cell controls. […] All assay plates were incubated in a 37° C. incubator for 5 days. […] SDS (20%) with 0.02N HCl in water was added at 50 μL per well to lyse cells. Plates were incubated overnight for complete cell lysis and then read on a microtiter plate reader at 570/650 nm wavelengths to determine cell optical density (O.D.). Raw data was analysed for percent inhibition by the following formula: [formula]
The 50% cytotoxicity concentration (CTC50) was calculated using uninfected MT4 cells

Data set [2] has as its system HIVIIIB. Put plainly: Antiviral Activity: anti-HIV activity in MT4 cells infected with HIVIIIB (MTT). The class given is cell-based. As to conditions: Human immunodeficiency virus 1, 120 h, MOI 0.003, 5 days, n=four duplicate determinations. As to the method: The anti-HIV activity of the compound of the invention was determined in MF4 cells according to the following procedure: MT4 cells were infected with cell-free supernatant of HIVIIIB (previously frozen with known 50% tissue culture infectious dose (TCID50) at 0.003 multiplicity of infection (MOI)) for one hour. After one hour infection, cells were washed twice to remove residual viruses, resuspended in culture media and seeded into 96-well tissue culture plates at 1×10^4 cells per well with various half-log dilutions of compounds. Uninfected cells were included a toxicity and cell controls. RPMI 1640 media (GIBCO) with 10% fetal bovine serum was used as culture media. Various concentrations (50%, 25% and 12.5%) of human serum (SIGMA) were added to culture media resulting in final concentrations of 60%, 35% and 22.5% total serum. All assay plates were incubated in a 37° C. incubator for 5 days. The compound 3-[4,5-dimethylthiozol-2-yl]-2,5-diphenyltetrazolium bromide (MTT, SIGMA, 5 mg .mL stock in PBS) was then added to all wells at 25 μL per well and incubated for 4 hours. SDS (20%) with 0.02N HCl in water was added at 50 μL per well to lyse cells. Plates were incubated overnight for complete cell lysis and then read on a microtiter plate reader at 570/650 nm wavelengths to determine cell optical density (O.D.). Raw data was analysed for percent inhibition by the following formula: [formula]
The 50% effective concentration (EC50) was calculated by the median effect equation (Chou, 1975, Proc. Int. Cong. Pharmacol. 6th p. 619) to determine the efficacy of compound. The 50% cytotoxicity concentration (CTC50) was calculated using uninfected MT4 cells
Under these conditions, the data of Table 2 was obtained (n=four duplicate determinations).

The target of data set [3] is HIV-1 protease (Human immunodeficiency virus type 1 group M subtype B, UniProt P04585). Description: Fluorogenic Assay for Screening Inhibitors of HIV Protease. The note with it: pH 4.5.
Protocol: The inhibitory potency of the compounds of the invention were determined by the following method: The compound of the invention was dissolved in DMSO and a small aliquot further diluted with DMSO to 100 times the final concentration desired for testing. The reaction was carried out in a 6×50 mm tube in a total volume of 300 microliters. […] After addition of inhibitor, the reaction mixture was placed in the fluorometer cell holder and incubated at 30° C. for several minutes. The reaction was initiated by the addition of a small aliquot of cold HIV protease. The fluorescence intensity (excitation 340 nm, emission 490 nm) was recorded as a function of time. The reaction rate was determined for the first six to eight minutes. The observed rate was directly proportional to the moles of substrate cleaved per unit time. The percent inhibition was calculated according to the equation: 100×(1-(rate of inhibitor)/(rate in absence of inhibitor)). As a control, duplicate reactions were performed identically as above but without the addition of an inhibitor compound.

Take `Cc1cc2[nH]c(=O)[nH]c2c(C)c1OCC(=O)N[C@@H](Cc1ccccc1)C[C@H](O)[C@H](Cc1ccccc1)NC(=O)O[C@H]1CO[C@H]2OCC[C@H]21` [Example 25, (2S,3S,5S)-5-(4,6-Dimethyl-benzimidazolinon-5-yloxy-acetyl)amino-2-((3R,3aS,6aR)-bis-tetrahydrofuran-3-yl-oxycarbonyl)amino-1,6-diphenyl-3-hydroxyhexane]: the CC50 at 120 h in data set [1] was greater than 100000 nM. This compound returned an EC50 in data set [2] of 972 nM. The same compound showed an inhibition at 0.0005 µM in data set [3] of 85%.
With `O=C(N[C@@H](Cc1ccccc1)C[C@H](O)[C@H](Cc1ccccc1)NC(=O)OC1COC2OCCC12)OC1COC2OCCC12` (stereo partly drawn) [Example 41, (2S,3S,5S)-2,5-((3R,3aS,6aR)-bis-Tetrahydrofuran-3-yl-oxycarbonyl)amino-1,6-diphenyl-3-hydroxyhexane], in data set [1], the CC50 at 120 h is greater than 100000 nM. In data set [2], this compound registered an EC50 of 43 nM. The inhibition at 0.0005 µM in data set [3] came out at 53%.
`Cc1ccc(O)c(C)c1OCC(=O)N[C@@H](Cc1ccccc1)C[C@H](O)[C@H](Cc1ccccc1)NC(=O)O[C@H]1CO[C@H]2OCC[C@H]21` [Example 74, (2S,3S,5S)-5-(2,6-Dimethyl-3-hydroxy-phenoxyacetyl)amino-2-((3R,3aS,6aR)-bis-tetrahydrofuran-3-yl-oxycarbonyl)amino-1,6-diphenyl-3-hydroxyhexane]: the CC50 at 120 h in data set [1] was 50500 nM. Further, a half-maximal response in data set [2] (EC50) required 7 nM. For the same compound, the inhibition at 0.0005 µM in data set [3] came to 89%.
As for `Cc1cccc(C)c1OCC(=O)N[C@@H](Cc1ccccc1)[C@@H](O)C[C@H](Cc1ccccc1)NC(=O)O[C@@H]1CCS(=O)(=O)C1(C)C` [Example 33, (2S,3S,5S)-2-(2,6-Dimethylphenoxyacetyl)amino-5-(3R-2,2-dimethyl-1,1-dioxy-tetrahydrothienyloxycarbonyl)amino-1,6-diphenyl-3-hydroxyhexane], in data set [1], the CC50 at 120 h stood at 18300 nM. For the same compound, in data set [2], the concentration for a half-maximal effect (EC50) came to 442 nM. In data set [3], this compound came in with an inhibition at 0.0005 µM of 84%.
The corresponding values for `CC(C)c1nc(CN(C)C(=O)N[C@@H](C(=O)N[C@@H](Cc2ccccc2)C[C@H](O)[C@H](Cc2ccccc2)NC(=O)OC2COC3OCCC23)C(C)C)cs1` (stereo partly drawn) [Example 39, (2S,3S,5S)-5-(N-(N-((N-Methyl-N-((2-isopropyl-4-thiazolyl)methyl)amino)carbonyl)-D-valinyl)amino)-2-((3R,3aS,6aR), (3S,3aR,6aS)-bis-tetrahydrofuran-3-yl-oxycarbonyl)amino-1,6-diphenyl-3-hydroxyhexane] are 56200 nM, 55 nM and 66%.
Take `CC(C)c1nc(CN(C)C(=O)NC(C(=O)NC(Cc2ccccc2)CC(O)C(Cc2ccccc2)NC(=O)OC2COC3OCCC23)C(C)C)cs1` [Example 51, (2S,3S,5S)-5-(N-(N-((N-Methyl-N-((2-isopropyl-4-thiazolyl)methyl)amino)carbonyl)-D-valinyl)amino)-2-((3R,3aS,6aR)-bis-tetrahydrofuran-3-yl-oxycarbonyl)amino-1,6-diphenyl-3-hydroxyhexane]: the CC50 at 120 h in data set [1] is greater than 100000 nM. Moreover, in data set [2], the concentration giving a half-maximal response (EC50) is 12 nM. The compound further returned an inhibition at 0.0005 µM in data set [3] of 83%.
As to `Cc1nc(CN(C)C(=O)N[C@H](C(=O)N[C@@H](Cc2ccccc2)C[C@H](O)[C@H](Cc2ccccc2)NC(=O)O[C@H]2CO[C@H]3OCC[C@H]32)C(C)C)cs1` [Example 49, (2S,3S,5S)-5-(N-(N-((N-Methyl-N-((2-methyl-4-thiazolyl)methyl)amino)carbonyl)-L-valinyl)amino)-2-((3R,3aS,6aR)-bis-tetrahydrofuran-3-yl-oxycarbonyl)amino-1,6-diphenyl-3-hydroxyhexane], in data set [1], the CC50 at 120 h is greater than 100000 nM. Also, the concentration giving a half-maximal response (EC50) in data set [2] was 42 nM. Further, in data set [3], the inhibition at 0.0005 µM was 74%.
Take `Cc1cccc(CO)c1OCC(=O)N[C@@H](Cc1ccccc1)C[C@H](O)[C@H](Cc1ccccc1)NC(=O)O[C@H]1CO[C@H]2OCC[C@H]21` [Example 7, (2S,3S,5S)-5-(2-Hydroxymethyl-6-methyl-phenoxyacetyl)amino-2-((3R,3aS,6aR)-bis-tetrahydrofuran-3-yl-oxycarbonyl)amino-1,6-diphenyl-3-hydroxyhexane]: the CC50 at 120 h in data set [1] was found to be 82000 nM. This compound had a concentration giving a half-maximal response (EC50) in data set [2] of 37 nM. The same compound registered an inhibition at 0.0005 µM in data set [3] of 88%.
For the compound `Nc1ccc(Cl)c(C(=O)N[C@@H](Cc2ccccc2)[C@@H](O)C[C@H](Cc2ccccc2)NC(=O)O[C@@H]2CO[C@@H]3OCC[C@@H]32)c1` [Example 63, (2S,3S,5S)-2-(3-Amino-6-chloro-benzoyl)amino-5-((3S,3aR,6aS)-bis-tetrahydrofuran-3-yl-oxycarbonyl)amino-1,6-diphenyl-3-hydroxyhexane], the CC50 at 120 h in data set [1] was greater than 100000 nM. Further, a half-maximal response in data set [2] (EC50) required 1560 nM. The compound further had an inhibition at 0.0029 µM in data set [3] of 50%.
With `Cc1cc(N)cc(C)c1OCC(=O)N[C@@H](Cc1ccccc1)C[C@H](O)[C@H](Cc1ccccc1)NC(=O)O[C@@H]1CO[C@@H]2OCC[C@@H]21` [Example 2, (2S,3S,5S)-5-(2,6-Dimethyl-4-amino-phenoxyacetyl)amino-2-((3S,3aR,6aS)-bis-tetrahydrofuran-3-yl-oxycarbonyl)amino-1,6-diphenyl-3-hydroxyhexane], in data set [1], the CC50 at 120 h came out at 90000 nM. Besides, the half-maximal effective concentration (EC50) in data set [2] stood at 170 nM. In data set [3], this compound came in with an inhibition at 0.0005 µM of 60%.
For `CC(=O)Oc1ccc(C(=O)N[C@@H](Cc2ccccc2)C[C@H](O)[C@H](Cc2ccccc2)NC(=O)O[C@H]2CO[C@H]3OCC[C@H]32)cc1` [Example 54, (2S,3S,5S)-5-(4-Acetoxy-benzoyl)amino-2-((3R,3aS,6aR)-bis-tetrahydrofuran-3-yl-oxycarbonyl)amino-1,6-diphenyl-3-hydroxyhexane], in data set [1], the CC50 at 120 h is greater than 100000 nM. The compound also gave a 50% effective concentration (EC50) in data set [2] of 145 nM. At 0.0014 µM the inhibition in data set [3] was 50%.
Take `O=C(N[C@@H](Cc1ccccc1)C[C@H](O)[C@H](Cc1ccccc1)NC(=O)c1ccc(O)cc1)O[C@H]1CO[C@H]2OCC[C@H]21` [Example 64, (2S,3S,5S)-2-(4-Hydroxy-benzoyl)amino-5-((3R,3aS,6aR)-bis-tetrahydrofuran-3-yl-oxycarbonyl)amino-1,6-diphenyl-3-hydroxyhexane]: the CC50 at 120 h in data set [1] was greater than 100000 nM. In data set [2], this compound gave an EC50 of 200 nM. In addition, 0.0005 µM produced 64% inhibition in data set [3].
As for `Cc1cccc(C)c1OCC(=O)N[C@@H](Cc1ccccc1)[C@@H](O)C[C@H](Cc1ccccc1)NC(=O)OC1CCSC1C(C)C` (stereo partly drawn) [Example 27, (2S,3S,5S)-2-(2,6-Dimethylphenoxyacetyl)amino-5-(3(R,S)-2(R,S)-isopropyl-tetrahydrothienyloxycarbonyl)amino-1,6-diphenyl-3-hydroxyhexane], testing at 0.0013 µM in data set [3] gave an inhibition of 50%.
As for `O=C(N[C@@H](Cc1ccccc1)C[C@H](O)[C@H](Cc1ccccc1)NC(=O)c1cccc(O)c1)O[C@H]1CO[C@H]2OCC[C@H]21` [Example 66, (2S,3S,5S)-2-(3-Hydroxy-benzoyl)amino-5-((3R,3aS,6aR)-bis-tetrahydrofuran-3-yl-oxycarbonyl)amino-1,6-diphenyl-3-hydroxyhexane], in data set [2], the EC50 stood at 644 nM. In data set [3], this compound came in with an inhibition at 0.0005 µM of 68%.
